Laboratory results taken from paper PMC7020476, “New Insights into the Type II Toxins from the Sea Anemone Heteractis crispa” (Toxins, 2020).
Entries after “also recorded” stand apart in the source; their conditions may differ. Like-named read-outs stand apart in the source and are kept apart here. Bridges are numbered along the chain shown (N, C = ends). Roman numbers before positions name the chains, in order. Where no end group is shown, it is not given here.

Experiments:
[1] = tested on: NaV channels (NaV1.1–NaV1.6, NaV1.8, BgNaV1, VdNaV1); experiment: Electrophysiological screening on nine NaV subtypes (overall statements); format: cell-based; conditions: for modulation of NaV channels (in words): 10 μM toxin, Xenopus oocytes; for phyla selectivity (in words): mammalian vs. insect/arachnid, 10 μM
Description: (§1) For the expression of NaV channels (hNaV1.1, rNaV1.2, rNaV1.3, rNaV1.4, hNaV1.5, mNaV1.6, rNaV1.8, the invertebrate channels BgNaV1.1, VdNaV1, and the auxiliary subunits rβ1, hβ1, and TipE) in Xenopus oocytes, the linearized plasmids were transcribed using the T7 or SP6 mMessage-mMachine Transcription Kit (Thermo Fisher Scientific, Waltham, MA, USA). The harvesting of stage V–VI oocytes from anesthetized female X. laevis frogs was previously described with a protocol adjustment in which the frogs were anesthetized by placement in 0.1% tricaine (amino benzoic acid ethyl ester; Millipore Sigma, Burlington, MA, USA) solution. Oocytes were injected with 50 nL of cRNA at a concentration of 1 ng/nL using a microinjector (Drummond Scientific Company, Broomall, PA, USA). The oocytes were incubated in a solution containing (mM) the following: NaCl, 96; KCl, 2; CaCl2, 1.8; MgCl2, 2; and HEPES, 5 (pH 7.4). This solution was supplemented with 50 mg/L gentamicin sulfate.
(§2) Two-electrode voltage-clamp recordings were performed at room temperature (18–22 °C) using a GeneClamp 500 amplifier (Molecular Devices, San Jose, CA, USA) controlled by a pClamp data acquisition system (Axon Instruments, Union City, CA, USA). Whole-cell currents from oocytes were recorded 1–4 d after mRNA injection. Bath solution composition was (mM) as follows: NaCl, 96; KCl, 2; CaCl2, 1.8; MgCl2, 2; and HEPES, 5 (pH 7.4). Voltage and current electrodes were filled with 3 M KCl. The resistances of both electrodes were kept between 0.8 and 1.5 MΩ. The elicited currents were filtered at 1 kHz and sampled at 20 kHz by using a 4-pole low-pass Bessel filter. Leak subtraction was performed using a -P/4 protocol.
(§3) For the electrophysiological analysis of toxins, a number of protocols were applied from a holding potential of −90 mV with a start-to-start frequency of 0.2 Hz. Na^+ current traces were evoked by 100-ms depolarizations to Vmax (the voltage corresponding to maximal Na^+ current in control conditions). The current–voltage relationships were determined by 50-ms step depolarizations between −90 and 70 mV, using 5 mV increments. The Na^+ conductance (gNa) was calculated from the currents according to Ohm’s law: gNa = INa/(V − Vrev), where INa represents the Na^+ current peak amplitude at a given test potential V, and Vrev is the reversal potential. The values of gNa were plotted as a function of voltage and fitted using the Boltzmann function: gNa/gmax = [1 + (exp(Vg − V)/k)] −1, where gmax represents maximal gNa, Vg is the voltage corresponding to half-maximal conductance, and k is the slope factor. Toxin–induced effects on the steady–state inactivation were investigated by using a standard two-step protocol. […] I30ms/Ipeak was measured at the same test voltage after addition of the toxin. […]

mice [2] = conditions: cited from earlier work
Description: The only difference observed within our electrophysiological experiments that may underlie this phenomenon is a different activity of both toxins on NaV1.2 and NaV1.3 subtypes (Figure 5, Table 2). Even though tetrodotoxin (TTX)-sensitive brain-type sodium channel isoforms NaV1.1–NaV1.3 and NaV1.6 are the main channels e ...

rNaV1.3 = experiment: Two-electrode voltage-clamp of NaV1.3 expressed in Xenopus laevis oocytes; format: cell-based, rat; conditions: 10 μM toxin
Description: as §1, with “Oocytes were injected with 50 nL of cRNA at a concentration of 1 ng/nL using a microinjector (Drummond Scientific Company, Broomall, PA, USA). The oocytes were incubated in a solution containing (mM) the following: NaCl, 96; KCl, 2; CaCl2, 1.8; MgCl2, 2; and HEPES, 5 (pH 7.4). This solution was supplemented with 50 mg/L gentamicin sulfate.” left out
Two-electrode voltage-clamp recordings were performed at room temperature (18–22 °C) using a GeneClamp 500 amplifier (Molecular Devices, San Jose, CA, USA) controlled by a pClamp data acquisition system (Axon Instruments, Union City, CA, USA). Whole-cell currents from oocytes were recorded 1–4 d after mRNA injection. […]
For the electrophysiological analysis of toxins, a number of protocols were applied from a holding potential of −90 mV with a start-to-start frequency of 0.2 Hz. […] The current–voltage relationships were determined by 50-ms step depolarizations between −90 and 70 mV, using 5 mV increments. […] I30ms/Ipeak was measured at the same test voltage after addition of the toxin. […]

[3] = Secondary structure content by CD spectroscopy; format: physicochemical; conditions: water, 20 °C; for Unordered / α-Helices αD / α-Helices αR / α-Helices αtot: CONTIN; for α-Helices αD: distorted; for α-Helices αR: regular; for α-Helices αtot: sum
Procedure: CD spectra were measured in the range from 320 to 190 nm with a Chirascan-plus spectropolarimeter (Applied Photophysics, Leatherhead, UK). The instrument was calibrated with 10-camphorsulfonic acid ammonium salt, and a ratio of 2:1 was found between the positive CD band at 290 nm and the negative CD band at 192 nm. The measurements were carried out in bidistilled water at 20 °C using 0.1- and 1-cm path length cells in amide and aromatic regions, respectively. In the amide region (190–240 nm) of the CD spectrum, molar ellipticity [θ]λ (deg cm^2 dmol^−1) was calculated as [θ]λ = θobs × MRW/10 × C × L, where θobs is the observed ellipticity in degrees, MRW is the mean amino acid residue weight of 110 Da, L is the path length (cm), and C is the protein concentration (g/mL). In the aromatic region (240–320 nm) of the CD spectrum, results were expressed as molar ellipticity (the average molecular masses of RpII, RTX-III, and RTX-VI are 5378, 5287, and 5240 Da, respectively). The secondary structure contents were determined according to the method of Provencher and Glöckner, using their CONTIN program.

BgNaV1 = BgNaV1 (Blattella germanica, UniProt O01306); experiment: Two-electrode voltage-clamp of BgNaV1 expressed in Xenopus laevis oocytes; format: cell-based, insect; conditions: for EC50: amplitude of toxin-induced effect at 30 ms (I30ms), Hill fit, Xenopus oocytes, means ± sem, n ≥ 5, read-out: half-maximal effective concentration (EC50), BgNaV1
Description: as §1, §2, §3

rNaV1.2 = target: T1, rNaV1.2 (Rattus norvegicus, UniProt P04775); experiment: Two-electrode voltage-clamp of NaV1.2 expressed in Xenopus laevis oocytes; format: cell-based; conditions: for EC50: read-out: half-maximal effective concentration (EC50), NaV1.2
T1 construct: expressed in transfected cells; host or cells: Xenopus laevis oocytes injected with cRNA
Description: as §1, §2
as §3, with “protocol. In this protocol, 100 ms conditioning 5 mV step prepulses ranging from −90 to 70 mV were followed by a 50-ms test pulse to −30 or −10 mV. Data were normalized to the maximal Na^+ current amplitude, plotted against prepulse potential, and fitted by using the Boltzmann function: INa/Imax = {(1 − C)/(1 + exp[(V − Vh)/k)]} + C, where Imax is the maximal INa, Vh is the voltage corresponding to half-maximal inactivation, V is the test voltage, k is the slope factor, and C is a constant representing a non-inactivating persistent fraction (close to 0 in control).” for “protocol.”

mNaV1.6 = target: T2, mNaV1.6 (Mus musculus, UniProt Q9WTU3); experiment: Two-electrode voltage-clamp of NaV1.6 expressed in Xenopus laevis oocytes; format: cell-based; conditions: for EC50: amplitude of toxin-induced effect at 30 ms (I30ms), Hill fit, Xenopus oocytes, means ± sem, n ≥ 5, read-out: half-maximal effective concentration (EC50), NaV1.6
T2 construct: expressed in transfected cells; host or cells: Xenopus laevis oocytes injected with cRNA
Description: as §1, §2, §3

mice [4] = experiment: Toxicity in mice; format: in vivo, adult male CD-1 mice; conditions: intraperitoneal, six animals per sample, 24 hours
Procedure: The care and use of animals were performed in an agreement with the requirements of local and international legislation as well as of the Directive 2010/63/EU for animal experiments.
Adult male CD-1 mice weighing 20–22 g were kept at room temperature with a 12-h light/dark cycle and with ad libitum access to food and water. Each animal was used only once and was euthanized in the CO2 chamber immediately after completion of the experiment. Animal procedures were approved by the Animal Care and Use Committee of the PIBOC FEB RAS.
The peptides (0.15–300 μg) were dissolved in 100 μL of sterile saline (0.9% NaCl) and injected intraperitoneally. Six animals were used per sample. To assess peptide toxicity, the maximum non-toxic dose was determined as an amount (mg) of the tested peptide per kg of the mouse weight, at which there was no observed toxic or adverse effect within 24 hours.

[5] = amplitude of toxin-induced effect at 30 ms (I30ms), Hill fit, Xenopus oocytes, means ± sem, n ≥ 5

T2 sequence (Q9WTU3 whole entry): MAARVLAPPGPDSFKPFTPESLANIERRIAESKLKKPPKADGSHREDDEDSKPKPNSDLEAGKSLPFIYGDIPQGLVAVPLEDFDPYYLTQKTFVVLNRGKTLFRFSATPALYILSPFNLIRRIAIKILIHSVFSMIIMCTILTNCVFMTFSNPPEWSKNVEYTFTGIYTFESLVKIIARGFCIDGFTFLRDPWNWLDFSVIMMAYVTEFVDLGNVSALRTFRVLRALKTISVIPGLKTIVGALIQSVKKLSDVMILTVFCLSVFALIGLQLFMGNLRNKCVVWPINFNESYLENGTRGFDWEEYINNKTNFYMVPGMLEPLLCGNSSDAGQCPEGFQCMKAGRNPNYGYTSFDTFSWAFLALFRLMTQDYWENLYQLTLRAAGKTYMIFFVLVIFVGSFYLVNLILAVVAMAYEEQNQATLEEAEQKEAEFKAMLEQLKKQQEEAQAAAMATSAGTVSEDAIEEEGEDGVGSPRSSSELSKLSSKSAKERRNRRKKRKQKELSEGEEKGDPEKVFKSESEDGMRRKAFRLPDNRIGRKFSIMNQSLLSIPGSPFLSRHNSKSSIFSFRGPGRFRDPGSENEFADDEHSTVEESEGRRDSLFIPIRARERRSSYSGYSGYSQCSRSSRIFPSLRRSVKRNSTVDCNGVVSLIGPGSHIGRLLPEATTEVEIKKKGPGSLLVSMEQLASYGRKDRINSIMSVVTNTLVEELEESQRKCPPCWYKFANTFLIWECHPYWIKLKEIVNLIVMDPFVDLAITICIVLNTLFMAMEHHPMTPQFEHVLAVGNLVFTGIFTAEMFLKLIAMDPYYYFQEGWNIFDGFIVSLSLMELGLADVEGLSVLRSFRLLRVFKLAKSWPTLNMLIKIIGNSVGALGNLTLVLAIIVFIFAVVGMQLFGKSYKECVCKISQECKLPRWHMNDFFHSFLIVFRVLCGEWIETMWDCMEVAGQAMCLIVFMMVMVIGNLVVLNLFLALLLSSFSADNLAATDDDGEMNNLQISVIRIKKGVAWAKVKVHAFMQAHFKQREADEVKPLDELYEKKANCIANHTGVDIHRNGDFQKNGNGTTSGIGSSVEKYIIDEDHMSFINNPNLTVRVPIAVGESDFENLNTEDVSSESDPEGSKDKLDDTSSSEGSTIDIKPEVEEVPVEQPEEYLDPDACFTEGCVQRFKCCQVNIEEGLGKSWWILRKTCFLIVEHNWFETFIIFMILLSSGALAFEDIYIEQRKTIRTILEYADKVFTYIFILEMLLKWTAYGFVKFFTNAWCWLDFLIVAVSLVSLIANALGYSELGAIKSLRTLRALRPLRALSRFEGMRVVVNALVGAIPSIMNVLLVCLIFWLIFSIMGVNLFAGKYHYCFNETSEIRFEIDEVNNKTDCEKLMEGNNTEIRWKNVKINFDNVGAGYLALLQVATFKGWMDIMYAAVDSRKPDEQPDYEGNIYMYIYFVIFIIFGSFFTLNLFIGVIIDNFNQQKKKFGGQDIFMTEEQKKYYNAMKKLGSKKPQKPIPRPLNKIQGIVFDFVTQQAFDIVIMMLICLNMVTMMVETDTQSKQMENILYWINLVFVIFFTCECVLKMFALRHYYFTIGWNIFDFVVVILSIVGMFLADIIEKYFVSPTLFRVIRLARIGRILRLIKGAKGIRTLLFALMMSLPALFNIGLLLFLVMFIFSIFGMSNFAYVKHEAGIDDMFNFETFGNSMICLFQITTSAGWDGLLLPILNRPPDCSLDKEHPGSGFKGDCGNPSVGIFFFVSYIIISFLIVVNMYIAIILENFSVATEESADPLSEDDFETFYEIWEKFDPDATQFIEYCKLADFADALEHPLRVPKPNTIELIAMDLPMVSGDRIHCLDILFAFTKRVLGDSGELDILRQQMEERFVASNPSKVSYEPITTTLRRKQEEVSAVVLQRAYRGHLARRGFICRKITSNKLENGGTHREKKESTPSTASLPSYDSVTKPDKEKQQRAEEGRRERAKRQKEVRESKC
T1 sequence (P04775 whole entry): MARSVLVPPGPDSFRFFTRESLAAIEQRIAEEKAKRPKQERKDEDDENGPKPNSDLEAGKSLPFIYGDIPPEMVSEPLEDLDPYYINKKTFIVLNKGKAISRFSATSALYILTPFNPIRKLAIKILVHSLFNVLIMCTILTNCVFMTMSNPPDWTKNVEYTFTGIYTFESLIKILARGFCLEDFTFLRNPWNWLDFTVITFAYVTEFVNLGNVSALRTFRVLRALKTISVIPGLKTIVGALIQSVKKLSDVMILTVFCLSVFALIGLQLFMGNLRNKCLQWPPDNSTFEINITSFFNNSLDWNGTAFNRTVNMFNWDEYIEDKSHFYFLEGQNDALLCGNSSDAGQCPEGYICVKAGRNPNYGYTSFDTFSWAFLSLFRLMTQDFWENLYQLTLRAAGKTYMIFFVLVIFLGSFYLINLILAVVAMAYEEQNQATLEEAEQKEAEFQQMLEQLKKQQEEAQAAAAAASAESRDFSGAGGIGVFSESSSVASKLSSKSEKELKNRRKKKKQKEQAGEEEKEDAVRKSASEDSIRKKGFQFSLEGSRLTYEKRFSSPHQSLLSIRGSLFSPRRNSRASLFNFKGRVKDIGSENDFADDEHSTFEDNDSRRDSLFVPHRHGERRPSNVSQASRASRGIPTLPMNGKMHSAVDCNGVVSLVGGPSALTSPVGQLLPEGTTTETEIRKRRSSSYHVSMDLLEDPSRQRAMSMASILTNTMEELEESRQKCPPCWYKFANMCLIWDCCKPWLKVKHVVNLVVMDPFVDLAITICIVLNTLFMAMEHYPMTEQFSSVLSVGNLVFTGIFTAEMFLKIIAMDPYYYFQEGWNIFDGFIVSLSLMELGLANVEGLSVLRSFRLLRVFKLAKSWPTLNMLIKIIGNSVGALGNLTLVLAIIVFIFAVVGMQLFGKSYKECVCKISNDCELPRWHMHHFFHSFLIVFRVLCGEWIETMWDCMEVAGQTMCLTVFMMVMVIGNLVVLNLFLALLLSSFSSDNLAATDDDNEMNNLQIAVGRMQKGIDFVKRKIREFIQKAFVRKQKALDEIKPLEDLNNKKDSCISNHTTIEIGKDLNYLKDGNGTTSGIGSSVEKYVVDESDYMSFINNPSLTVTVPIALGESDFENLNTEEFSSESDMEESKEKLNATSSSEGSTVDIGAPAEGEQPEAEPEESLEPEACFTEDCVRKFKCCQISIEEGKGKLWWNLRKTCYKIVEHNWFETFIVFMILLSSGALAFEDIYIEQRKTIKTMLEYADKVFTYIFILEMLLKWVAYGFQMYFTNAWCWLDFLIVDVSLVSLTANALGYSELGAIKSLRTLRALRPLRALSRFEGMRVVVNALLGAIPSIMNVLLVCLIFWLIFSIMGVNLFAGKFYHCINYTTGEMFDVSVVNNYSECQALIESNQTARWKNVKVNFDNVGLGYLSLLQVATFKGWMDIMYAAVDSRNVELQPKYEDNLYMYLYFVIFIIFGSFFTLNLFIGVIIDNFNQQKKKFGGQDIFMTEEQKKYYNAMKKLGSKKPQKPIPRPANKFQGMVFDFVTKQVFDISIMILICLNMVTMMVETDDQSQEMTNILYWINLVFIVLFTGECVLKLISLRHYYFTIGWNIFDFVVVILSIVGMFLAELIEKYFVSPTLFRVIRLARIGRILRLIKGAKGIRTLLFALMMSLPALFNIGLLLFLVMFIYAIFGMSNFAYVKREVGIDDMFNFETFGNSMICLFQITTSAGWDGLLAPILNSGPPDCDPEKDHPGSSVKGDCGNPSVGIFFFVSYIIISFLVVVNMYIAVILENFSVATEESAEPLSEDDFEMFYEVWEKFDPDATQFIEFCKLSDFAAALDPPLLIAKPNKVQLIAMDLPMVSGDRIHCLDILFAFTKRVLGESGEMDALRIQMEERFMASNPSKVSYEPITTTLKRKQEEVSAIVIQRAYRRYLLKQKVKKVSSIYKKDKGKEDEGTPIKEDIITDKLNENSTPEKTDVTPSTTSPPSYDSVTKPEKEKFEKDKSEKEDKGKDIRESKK

Row | Substance | modulation of NaV channels (in words) [1] | phyla selectivity (in words) [1] | LD50 (mice [2]; ref [10]) [mg/kg] | effect on NaV1.3 current (in words) (rNaV1.3) | α-helices (in words) [3] | Unordered [3] [percentage] | α-Helices αD [3] [percentage] | α-Helices αR [3] [percentage] | α-Helices αtot [3] [percentage] | EC50 (BgNaV1) [nM] | half-maximal effective concentration (EC50), NaV1.2 (rNaV1.2; [5]) | EC50 (mNaV1.6) [nM] | relative potency on BgNaV1 (in words) (BgNaV1; compared with RTX-III) | effect on NaV1.2 current (in words) (rNaV1.2; Xenopus oocytes) | EC50 (rNaV1.2; [5]) [nM] | relative activity on NaV1.2 (in words) (rNaV1.2; compared to δ-SHTX-Hcr1f (Figure 6, Table 3)) | relative potency on NaV1.6 (in words) (mNaV1.6; compared with RTX-III) | LD50 (mice [4]; mice) [mg/kg] | LD50 (mice [2]; ref [8]) [mg/kg] | toxicity in mice (in words) (mice [4]; CD-1 mice)
1 | H-GNCKCDDEGPYVRTAPLTGYVDLGYCNEGWEKCASYYSPIAECCRKKK-NH2 (disulfide 3-43, 5-33, 26-44) [RTX-III] | modulate insect, arachnid (BgNaV1, VdNaV1), and mammalian CNS NaV channels (NaV1.1–NaV1.3, NaV1.6) but not skeletal muscle (NaV1.4), cardiac (NaV1.5), or PNS (NaV1.8) channels; also recorded: did not affect currents of skeletal muscle NaV1.4, cardiac NaV1.5, and PNS NaV1.8 channels | not to be phyla-selective; also recorded: non-phyla-selective | 0.0025 | exhibited substantial activating effects on NaV1.3; also recorded: acted similarly on NaV1.3 | practically absent | 40.1 | 0.4 | 0.1 | 0.5 | 978 ± 62.3 | Not active | 382 ± 5.8 |  |  |  |  |  |  |  | 
2 | I: TAPLTGYVDLGYCNEGWEKCASYYSPIAECCRKKK-NH2 / II: GNCKCDDEGPYV-OH (disulfide I:13-I:31, I:20-II:5, I:30-II:3) [RTX-VI] | modulate insect, arachnid (BgNaV1, VdNaV1), and mammalian CNS NaV channels (NaV1.1–NaV1.3, NaV1.6) but not skeletal muscle (NaV1.4), cardiac (NaV1.5), or PNS (NaV1.8) channels; also recorded: did not affect currents of skeletal muscle NaV1.4, cardiac NaV1.5, and PNS NaV1.8 channels | not to be phyla-selective; also recorded: non-phyla-selective |  | abolished its effect on the NaV1.3 current | practically absent | 38.3 | 0.3 | 0.0 | 0.3 | 761 ± 25.6 |  | 282 ± 7 | more potent inhibitor of both NaV1.6 and BgNaV1 channels than RTX-III | modulated another subtype of the CNS channels, NaV1.2; also recorded: enhanced current through NaV1.2 | 121 ± 19.3 | lower activity on the NaV1.2 subtype compared to δ-SHTX-Hcr1f | more potent inhibitor of both NaV1.6 and BgNaV1 channels than RTX-III | > 10 |  | 
3 | ASCKCDDDGPDVRSATFTGTVDFWNCNEGWEKCTAVYTPVASCCRKKK-NH2 (disulfide 3-43, 5-33, 26-44) [δ-SHTX-Hcr1f] |  |  |  |  |  |  |  |  |  | 226 ± 12.3 |  | 183 ± 8.2 |  |  | 79.5 ± 4.3 |  |  |  | 4.2 | consistent with the previously reported data for RpII
